Data published in patent US5262537A, “Derivatives of 4,5,6,7-tetrahydroimidazo-[4,5-c]pyridinyl-6-carboxylic acid” (priority 1993, dated 1993).
Read-outs that look alike come from different tables or passages of the source.

Columns and labels:
[1] = tested on: Ferret; experiment: Cisplatin Ferret Assay--Antiemetic Screening; format: in vivo, Male ferrets; settings: for inhibition in vivo at 0.1 mg/kg / ED50: Mustela putorius, iv, 4 h; for inhibition in vivo at 0.1 mg/kg: read-out: Ferret Cisplatin Test % Prot, 0.1 mg/Kg; for ED50: read-out: Ferret Cisplatin Test ED50
Procedure: Male ferrets (castrated, descented, 1-2 kg) were purchased from Triple F Farms, Syre, Pa. Ferrets were housed four in a cage with a 12 hour light cycle and were fed ad libitum with Ralston Purina Cat Chow. Each ferret was used unfasted for the assay after a minimum of a 24 hour acclimation time in animal facility.
Ferret Preparation. Each ferret was anesthetized with 5% isoflurane-O2in a 20 gallon aquarium for 2 to 5 minutes. After removal of the anesthetic gas, the animals were removed and weighed. Injections were made into the dorsal front paw vein using a tourniquet and a 1 ml tuberculin syringe with a 25 g needle while the animal was maintained under anesthesia using a small nose cone delivering 5% isoflurane-O2. Cisplatin was injected using a 3 ml or 5 ml syringe in the opposite paw from the study compound or saline. Recovery time from anaesthesia was 5 to 8 minutes.
Drug Preparation. Cisplatin bulk powder was weighed and dissolved in normal saline at 75° C. to provide a 5 mg/ml solution (90 mg was placed in a scintillation vial and qs with 18 ml saline). The solution was stirred and maintained at 40° C. until ready for use. The study drug was weighed and dissolved in normal saline at room temperature to provide a 1 mg/ml solution (10 mg was placed in a scintillation vial and qs with 10 ml saline). Suspensions were heated to 40° C. to bring the study compound into solution. Compounds not soluble under these conditions were not assayed.
Assay. Cisplatin was injected i.v. at 10 mg/kg into twelve anesthetized ferrets daily at time zero. Normal saline (0.5 ml) or the study compound (0.1 or 1.0 mg/kg) was injected 30 minutes later in groups of three anesthetized ferrets. Order of treatment and treatment dose was selected at random, with the remaining treatment dose assayed in the next experiment.
Experimental Observations and Data Collection. Ferrets were viewed individually. The time and number of emetic episodes were recorded for four hours. Zero time was equivalent to the time of cisplatin injection. […] Retches were recorded but not counted. The total number of episodes for each of the four groups of three ferrets (+/-S.E.) was averaged and the effect of treatment (% protection) was calculated as the percent reduction of emetic episodes compared to controls. [formula]
Percent protection values were determined from experimental controls. Experimental controls were those obtained from the day of the experiment. Onset times of the first episode were averaged and recorded for each group. Prodromal signs (lip licking, slit eyes, head shaking, salivation, scratching, clawing, walking backward, sedation, urination, and defecation) were also averaged and recorded.

[2] = target: T1, 5-HT3 (Rattus norvegicus, UniProt P35563); experiment: biochemical; format: binding, Male Sprague-Dawley rats
T1 sequence (P35563 24-483): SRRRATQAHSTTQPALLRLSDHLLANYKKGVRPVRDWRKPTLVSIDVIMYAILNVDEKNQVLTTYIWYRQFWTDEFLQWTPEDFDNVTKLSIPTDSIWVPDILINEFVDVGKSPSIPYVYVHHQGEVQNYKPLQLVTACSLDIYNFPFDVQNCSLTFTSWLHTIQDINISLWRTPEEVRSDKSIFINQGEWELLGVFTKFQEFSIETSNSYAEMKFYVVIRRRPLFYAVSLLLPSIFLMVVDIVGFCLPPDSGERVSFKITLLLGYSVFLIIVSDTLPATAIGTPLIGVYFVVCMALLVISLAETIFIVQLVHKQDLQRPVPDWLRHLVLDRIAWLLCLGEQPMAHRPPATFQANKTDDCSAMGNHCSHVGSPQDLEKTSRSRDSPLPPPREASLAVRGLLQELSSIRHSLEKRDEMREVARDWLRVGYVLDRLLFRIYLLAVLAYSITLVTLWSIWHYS
Procedure: A number of compounds in accordance with the present invention were tested for their 5-HT3 and D2 binding affinities in accord with the following procedures.
Male Sprague-Dawley rats (175-220 g) were sacrificed by decapitation and their brains removed rapidly. The entorhinal cortex was used for the 5-HT3 (5-hydroxytryptamine) binding assay and the remainder of the brain, minus the brain stem and cerebellum, was used for the D2 (dopamine) binding assay. The entorhinal cortex was harvested and prepared on the day of the assay.
The entorhinal cortex was homogenized in 20 volumes of cold 50 mM HEPES buffer, pH 7.4, while the remaining brain tissue was homogenized in 20 volumes of cold 50 mM Tris, pH 7.4. The homogenates were centrifuged at 4800×g for 15 minutes at 5° C. and the supernatants decanted. Pellets were resuspended in the original volume of HEPES or Tris. Homogenates were centrifuged and the supernatants decanted. Pellets were resuspended in the same volume of HEPES or Tris and incubated at 37° C. for 45 minutes to remove endogenous neurotransmitters. Homogenates were centrifuged and the supernatants were decanted. Pellets for D2 assays were stored at -50° C. until the day of the assay. The pellets for the 5-HT3 assay (entorhinal cortex) were resuspended in the appropriate amount of HEPES buffer and used promptly. Modifications of published assays for [^3 H]GR65630 (Kilpatrick et al., Nature: 330, 746-748 (1987)) and [^3 H]raclopride (Dewar et al., J. Pharmacol. Exp. Ther.: 250, 696-706 (1989) and Lidow et al., Proc. Natl. Acad. Sci. USA: 86, 6412-6416 (1989)) were used for the 5-HT3 and D2 binding assays, respectively.
Briefly, 0.25 ml of homogenate was incubated with either 0.2 nM of [^3 H]GR65630 or 1.0 nM of [^3 H]raclopride in a final volume of 0.5 ml. D2 binding also requires sodium chloride and potassium chloride (120 mM and 5 mM, final concentration, respectively). In the 5-HT3 assay, non-specific binding was defined in the presence of 100 uM quipazine. In the D2 assay, non-specific binding was defined in the presence of 100 uM of (+/-) sulpiride. Both assays were incubated at room temperature; [^3 H]GR65630 for 40 minutes and [^3 H]raclopride for 60 minutes. Test compounds (0.1 ml) were added to incubates where appropriate. Bound ligand was separated from free ligand by filtration and quantified using liquid scintillation spectrophotometry. IC50 values were calculate for all test compounds.

[3] = 0.1 mg/kg i.v., 30 minutes after cisplatin 10 mg/kg i.v., percent reduction of emetic episodes vs controls, four hours
[4] = i.v., 30 minutes after cisplatin 10 mg/kg i.v., emetic episodes over four hours
[5] = 0.2 nM [3H]GR65630, rat entorhinal cortex, 40 minutes, room temperature, read-out: 5-HT3 IC50

Row | Compound | IC50 [2, 5] | inhibition in vivo at 0.1 mg/kg [1] | IC50 [2] | inhibition in vivo at 0.1 mg/kg [1, 3] | ED50 [1, 4] | ED50 [1] | Ferret Cisplatin Test % Prot, 0.1 mg/Kg [1, 3]
1 | CN1Cc2nc[nH]c2C[C@@H]1C(=O)c1ccccc1 [Compd 19, (R)-6-benzoyl-5-methyl-4,5,6,7-tetrahydroimidazo[4,5-c]pyridine] |  | 8% | 58.5 nM |  |  |  | 
2 | CN1Cc2nc[nH]c2C[C@H]1C(=O)Nc1cccc2c1NCCC2 [Compd 36] | 103 nM |  |  | 70% | 0.081 mg/kg |  | 
3 | CN1Cc2nc[nH]c2C[C@H]1C(=O)c1cc2ccccc2o1 [Compd 33, 6-(2-benzo[b]furanylcarbonyl)-5-methyl-4,5,6,7-tetrahydroimidazo[4,5-c]pyridine] | 2020 nM | 31% |  |  |  | 0.43 mg/kg | 
4 | CN1Cc2nc[nH]c2C[C@@H]1C(=O)Nc1cccc2nsnc12 [Compd 21] | 1.98 nM |  |  | 24% | 0.39 mg/kg |  | 
5 | CC(=O)c1ccccc1NC(=O)[C@@H]1Cc2[nH]cnc2CN1C [Compd 39, (S)-6-(2-acetylphenylaminocarbonyl)-5-methyl-4,5,6,7-tetrahydroimidazo[4,5-c]pyridine] | 4.18 nM |  |  | 65% | 0.045 mg/kg |  | 
6 | CN1Cc2nc[nH]c2C[C@H]1C(=O)Nc1ccccc1Oc1ccccc1.Cl.Cl [Compd 27, (S)-5-methyl-6-(2-phenoxyphenylaminocarbonyl)-4,5,6,7-tetrahydroimidazo[4,5-c]pyridine dihydrochloride] | 6.92 nM |  |  | 72% | 0.031 mg/kg |  | 
7 | COc1ccccc1NC(=O)[C@@H]1Cc2[nH]cnc2C(C)(C)N1C [Compd 25] | 14.1 nM |  |  | 93% | 0.026 mg/kg |  | 

Continued, in another order:

Row | IC50 [2, 5] | Compound | inhibition in vivo at 0.1 mg/kg [1] | IC50 [2] | inhibition in vivo at 0.1 mg/kg [1, 3] | ED50 [1, 4] | ED50 [1] | Ferret Cisplatin Test % Prot, 0.1 mg/Kg [1, 3]
8 | 15.9 nM | CN1Cc2nc[nH]c2C[C@H]1C(=O)Nc1cccc2nsnc12 [Compd 23] |  |  | 100% | 0.016 mg/kg |  | 
9 | 37.2 nM | CN1Cc2nc[nH]c2C[C@H]1C(=O)Nc1nc2ccccc2s1 [Compd 22] |  |  | 14% |  |  | 
10 | 273 nM | CN1Cc2[nH]cnc2C[C@@H]1C(=O)Nc1nccs1 [Compd 12] |  |  |  |  |  | 40%
11 | 71.5 nM | CN1Cc2nc[nH]c2C[C@@H]1C(=O)Nc1nc2ccccc2s1 [Compd 13, (R)-6-(2-benzothiazolylaminocarbonyl)-5-methyl-4,5,6,7-tetrahydroimidazo[4,5-c]pyridine] |  |  | 76% | 0.074 mg/kg |  | 
